Measurements published in ChEMBL document CHEMBL1147529, “Discovery and optimization of 2-aryl oxazolo-pyrimidines as adenosine kinase inhibitors using liquid phase parallel synthesis” (Bioorg Med Chem Lett, 2004).

Target: Adenosine kinase (Homo sapiens, UniProt P55263)
Assay: Inhibitory activity against human adenosine kinase expressed in Escherichia coli

Sequence of Adenosine kinase (P55263 whole entry): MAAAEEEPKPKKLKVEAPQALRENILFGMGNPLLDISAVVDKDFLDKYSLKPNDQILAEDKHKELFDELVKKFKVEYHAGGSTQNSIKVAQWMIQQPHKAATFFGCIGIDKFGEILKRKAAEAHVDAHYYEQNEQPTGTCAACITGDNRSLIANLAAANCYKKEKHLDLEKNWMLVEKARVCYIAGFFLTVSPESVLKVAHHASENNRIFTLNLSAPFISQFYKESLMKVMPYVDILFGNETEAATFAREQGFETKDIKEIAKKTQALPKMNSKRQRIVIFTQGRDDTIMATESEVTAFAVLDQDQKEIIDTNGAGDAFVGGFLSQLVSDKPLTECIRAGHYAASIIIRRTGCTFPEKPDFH

SMILES | IC50 [nM]
c1ccc(CN2C[C@@H]3CCCN(c4ncnc5oc(-c6ccccc6)nc45)[C@@H]3C2)cc1 | 1000
O=C(Nc1ccc(-c2nc3c(N4CC5CCN(Cc6ccccc6)C5C4)ncnc3o2)cc1)C1CC1 (configuration not stated) | 30
O=C(Nc1cccc(-c2nc3c(N4CC5CCN(Cc6ccccc6)C5C4)ncnc3o2)c1)C1CC1 (configuration not stated) | 60
O=C(Nc1ccc(-c2nc3c(N4CC5CCN(Cc6ccccc6)C5C4)ncnc3o2)cc1)c1ccccc1 (configuration not stated) | 70
COCC(=O)Nc1cccc(-c2nc3c(N4CC5CCN(Cc6ccccc6)C5C4)ncnc3o2)c1 (configuration not stated) | 40
Clc1ccc(-c2nc3c(N4CC5CCN(Cc6ccccc6)C5C4)ncnc3o2)cn1 (configuration not stated) | 70
CCCCNc1ncnc2oc(-c3ccccc3)nc12 | > 10000
c1ccc(CN2CC[C@@H]3CN(c4ncnc5oc(-c6ccccc6)nc45)C[C@@H]32)cc1 | 120
O=C(Nc1cccc(-c2nc3c(N4CC5CCN(Cc6ccccc6)C5C4)ncnc3o2)c1)c1ccc(F)cc1 (configuration not stated) | 200
O=C(Nc1cccc(-c2nc3c(N4CC5CCN(Cc6ccccc6)C5C4)ncnc3o2)c1)c1ccc(C(F)(F)F)cc1 (configuration not stated) | > 10000
COCCNc1ncnc2oc(-c3ccccc3)nc12 | > 10000
c1ccc(CN2CCN(c3ncnc4oc(-c5ccccc5)nc34)CC2)cc1 | > 10000
c1ccc(CN2CCC3CN(c4ncnc5oc(-c6ccccc6)nc45)CC32)cc1 (configuration not stated) | 200
Fc1ccc(-c2ccc(-c3nc4c(N5CC6CCN(Cc7ccccc7)C6C5)ncnc4o3)cc2)cc1 (configuration not stated) | > 10000
Brc1ccc(-c2nc3c(N4CC5CCN(Cc6ccccc6)C5C4)ncnc3o2)cc1 (configuration not stated) | 240
O=C(Cc1ccccc1)Nc1ccc(-c2nc3c(N4CC5CCN(Cc6ccccc6)C5C4)ncnc3o2)cc1 (configuration not stated) | 70

SMILES | IC50 [nM]
Nc1ccc(-c2nc3c(N4CC5CCN(Cc6ccccc6)C5C4)ncnc3o2)cc1 (configuration not stated) | 50
CN(C)c1ccc(-c2nc3c(N4CC5CCN(Cc6ccccc6)C5C4)ncnc3o2)cn1 (configuration not stated) | 10
O=C(Nc1ccc(-c2nc3c(N4CC5CCN(Cc6ccccc6)C5C4)ncnc3o2)cc1)c1ccc(F)cc1 (configuration not stated) | 130
c1ccc(CCCNc2ncnc3oc(-c4ccccc4)nc23)cc1 | 230
Fc1ccc(CN2CCCN(c3ncnc4oc(-c5ccccc5)nc34)CC2)cc1 | > 1000
Brc1cccc(-c2nc3c(N4CC5CCN(Cc6ccccc6)C5C4)ncnc3o2)c1 (configuration not stated) | 260
O=C(Nc1ccc(-c2nc3c(N4CC5CCN(Cc6ccccc6)C5C4)ncnc3o2)cc1)c1ccc(C(F)(F)F)cc1 (configuration not stated) | > 10000
COCC(=O)Nc1ccc(-c2nc3c(N4CC5CCN(Cc6ccccc6)C5C4)ncnc3o2)cc1 (configuration not stated) | 40
c1ccc(CN2CCC3CN(c4ncnc5oc(-c6ccncc6)nc45)CC32)cc1 (configuration not stated) | > 1000
O=C(Cc1ccccc1)Nc1cccc(-c2nc3c(N4CC5CCN(Cc6ccccc6)C5C4)ncnc3o2)c1 (configuration not stated) | 210
c1ccc(CN2CCC3CN(c4ncnc5oc(-c6cccnc6)nc45)CC32)cc1 (configuration not stated) | 130
O=C(Nc1cccc(-c2nc3c(N4CC5CCN(Cc6ccccc6)C5C4)ncnc3o2)c1)c1ccccc1 (configuration not stated) | 90
c1ccc(CN2CCC3CN(c4ncnc5oc(-c6ccc(-c7cccs7)cc6)nc45)CC32)cc1 (configuration not stated) | 90
CN(CCCNc1ncnc2oc(-c3ccccc3)nc12)c1ccccc1 | 270
c1ccc(CN2CC3CN(c4ncnc5oc(-c6ccccc6)nc45)CC3C2)cc1 (configuration not stated) | > 10000
Nc1ncnc2nc(-c3ccc(N4CCOCC4)nc3)cc(-c3cccc(Br)c3)c12 | 10
